Reference: the supplement of paper PMC8253809

How the values were obtained:
DIPGX29 [1] = H3.3 K27M diffuse intrinsic pontine glioma line; assay: area under dose-response curve of % growth inhibition (log2 RLU vs DMSO / staurosporine), 1e-11 to 1e-4 M (% x log10 M); higher = more growth inhibition
Procedure, shortened: (§1)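 Patient-derived pHGG/DIPG cell lines and astrocytes, cultured on 384-well plates with a 1% Geltrex coating, were given a 10-point threefold dilution series (mean top concentration 35 μM) in triplicate for 7 days (iAstro 3 days) at 37 °C, 5% CO2. CellTiter-Glo signal, log2-transformed and normalised per plate to % activity against solvent and positive controls, was fitted with a log-logistic curve or, where the sigmoid fit failed, a smoothing spline. Area under the curve was then computed by the trapezoid rule.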

DIPGX37 [2] = H3.3 K27M diffuse intrinsic pontine glioma line; assay: as above
Procedure, shortened: as §1

HGGX39 [3] = paediatric high-grade glioma line; assay: as above
Procedure, shortened: as §1

HGGX6 [4] = H3.3 G34R paediatric high-grade glioma line; assay: as above
Procedure, shortened: as §1

DIPGX29 [5] = assay: maximal growth inhibition (yFin) relative to DMSO / staurosporine; higher = more efficacious
Procedure, shortened: (§2)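 Viability readout was CellTiter-Glo luminescence, log2-transformed, normalised per plate to % activity between negative (solvent) and positive control wells, then pooled. This followed a 7-day exposure (3 days for iAstro) at 37 °C, 5% CO2 to a 10-point threefold dilution series (mean top concentration 35 μM), pin-tool delivered in triplicate to patient-derived pHGG/DIPG cell lines and astrocyte controls on 1% Geltrex-coated 384-well plates. Three- and four-parameter log-logistic fits were compared, and the one with the lowest AICc supplied EC50 and maximal response (yFin).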

DIPGX37 [6] = assay: as above
Procedure, shortened: as §2

HGGX39 [7] = assay: as above
Procedure, shortened: as §2

HGGX6 [8] = assay: as above
Procedure, shortened: as §2

DIPGX29 [9] = assay: EC50 (inflection of fitted growth-inhibition curve) (log10 M)
Procedure, shortened: as §2

DIPGX37 [10] = assay: as above
Procedure, shortened: as §2

HGGX39 [11] = assay: as above
Procedure, shortened: as §2

HGGX6 [12] = assay: as above
Procedure, shortened: as §2

Row | Compound | area under dose-response curve (DIPGX29 [1]) | area under dose-response curve (DIPGX37 [2]) | area under dose-response curve (HGGX39 [3]) | area under dose-response curve (HGGX6 [4]) | maximal growth inhibition (DIPGX29 [5]) [%] | maximal growth inhibition (DIPGX37 [6]) [%] | maximal growth inhibition (HGGX39 [7]) [%] | maximal growth inhibition (HGGX6 [8]) [%] | EC50 (log10 M) (DIPGX29 [9]) | EC50 (log10 M) (DIPGX37 [10]) | EC50 (log10 M) (HGGX39 [11]) | EC50 (log10 M) (HGGX6 [12])
1 | COc1ccccc1-c1cc(Nc2cccc(CS(N)(=O)=O)c2)ncn1 | 58.4 | 39.8 | 40.5 | 54.4 | 71.9 | 59.7 | 48.3 | 65.7 | -4.82 | -4.68 | -4.84 | -4.83
2 | Cc1nc(Nc2n[nH]c3c2CN(C(=O)N[C@H](CN(C)C)c2ccccc2)C3(C)C)c2sccc2n1 | 150 | 177 | 120 | 174 | 77.2 | 80.1 | 79.6 | 75.5 | -5.45 | -5.56 | -5.22 | -5.66
3 | Cc1nn(C)c(COc2ccc(N3CCN(S(=O)(=O)N(C)C)CC3)cc2)c1-c1cccc2c(CCCOc3cccc4ccccc34)c(C(=O)O)n(CCN3CCOCC3)c12 | 81.7 | 79.7 | 0 | 4.05 | 92.1 | 110 |  |  | -4.9 | -4.73 |  | 
4 | O=C1NCCc2[nH]c(-c3ccncc3)cc21 | 110 | 111 | 98.2 | 124 | 67.8 | 58.9 | 71.2 | 65.9 | -5.62 | -5.9 | -5.41 | -5.81
5 | COc1cc2c(cc1O)CC[C@@H]1[C@@H]2CC[C@]2(C)[C@@H](O)CC[C@@H]12 [2-METHOXYESTRADIOL] | 40.9 | 48.8 | 47.3 | 38.9 | 22.8 | 36.4 | 53 | 23.6 | -5.23 | -4.96 | -4.89 | -5.65
6 | Nc1nccc2c1ncn2[C@@H]1C=C(CO)[C@@H](O)[C@H]1O [3-DEAZANEPLANOCIN] | 76 | 16.8 | 33.5 | 36.5 | 21.5 |  |  |  | -7.53 |  |  | 
7 | CC(C)(C)C(=O)OCOP(=O)(COCCn1cnc2c(N)ncnc21)OCOC(=O)C(C)(C)C [ADEFOVIR DIPIVOXIL] | 25.6 | 53.7 | 36.5 | 22.2 |  | 34.3 | 21.4 | 20.9 |  | -5.54 | -5.71 | -5.06
8 | CCCSc1ccc2[nH]c(NC(=O)OC)nc2c1 [ALBENDAZOLE] | 33.5 | 60.2 | 66 | 28.7 |  | 28.7 | 32 | 23 |  | -6.1 | -6.13 | -5.18
9 | CC(C)c1c(C(=O)Nc2ccccc2)c(-c2ccccc2)c(-c2ccc(F)cc2)n1CC[C@@H](O)C[C@@H](O)CC(=O)O [ATORVASTATIN] | 48 | 66.2 | 108 | 55.5 |  | 22 | 84.1 | 55.1 |  | -6.26 | -5.24 | -4.88
10 | CNC(=O)c1ccccc1Sc1ccc2c(/C=C/c3ccccn3)n[nH]c2c1 [AXITINIB] | 45.4 | 55.3 | 46.3 | 67.6 | 21.1 |  | 23.3 | 28.6 | -6.07 |  | -5.96 | -6.35
11 | Clc1ccccc1C(c1ccccc1)(c1ccccc1)n1ccnc1 [CLOTRIMAZOLE] | 27.2 | 13.3 | 27.8 | 31.5 | 29.5 |  | 23 | 26.3 | -4.92 |  | -5.21 | -5.22
12 | Cc1nc2c([nH]1)-c1ccccc1N(C(=O)c1ccc(NC(=O)c3ccccc3-c3ccccc3)cc1)CC2 [CONIVAPTAN] | 29.9 | 35.9 | 60.9 | 6.44 | 26.5 | 36 | 83.9 |  | -4.73 | -4.59 | -4.73 | 
13 | O=c1[nH]c(=O)n([C@H]2C[C@H](O)[C@@H](CO)O2)cc1F [FLOXURIDINE] | 46.2 | 18.8 | 26.8 | 23.5 | 30 |  |  |  | -5.39 |  |  | 
14 | Nc1ccn([C@@H]2O[C@H](CO)[C@@H](O)C2(F)F)c(=O)n1 [GEMCITABINE] | 81.9 | 83.9 | 68.9 | 54.2 | 20.3 |  |  |  | -8.08 |  |  | 
15 | CCNc1nc(Nc2cc(F)c(C(=O)N3CCOCC3)cc2OC)ncc1C(F)(F)F [GNE-7915] | 23.5 | 15.9 | 29.7 | 21.1 | 28.7 |  | 38.7 |  | -4.82 |  | -4.79 | 
16 | CC[C@H](C)n1cc(C)c2c(C(=O)NCc3c(C)cc(C)[nH]c3=O)cc(-c3ccc(N4CCNCC4)nc3)cc21 [GSK126] | 66.1 | 74.3 | 13.1 | 61.2 | 76.4 | 76.7 |  | 74.4 | -4.87 | -4.88 |  | -4.83
17 | Cc1cc(C)c(S(=O)(=O)N(Cc2ccc(-c3cccc(S(C)(=O)=O)c3)cc2)Cc2ccc(C(F)(F)F)o2)c(C)c1 [GSK-2033] | 89 | 22.5 | 0 | 30.1 | 87.3 |  |  |  | -5.05 |  |  | 
18 | COc1cc2c(cc1-c1c(C)noc1C)ncc1[nH]c(=O)n([C@H](C)c3ccccn3)c12 [I-BET151] | 31.6 | 43.5 | 47.5 | 37.1 | 21.8 | 25.8 | 45 |  | -5.05 | -5.65 | -5.03 | 
